{"source": "paper PMC9146377", "about": "“Design and Synthesis of Novel Bis-Imidazolyl Phenyl Butadiyne Derivatives as HCV NS5A Inhibitors” (Pharmaceuticals, 2022)", "key": {"[1]": {"system": "HCV genotype 1b Con-1 subgenomic replicon", "assay": "Anti-HCV luciferase assay, genotype 1b (Con1) subgenomic replicon in Huh5-2 cells", "assay_type": "cell-based, Hepatitis C virus", "details": "mean of three experiments"}, "[2]": {"assay": "Cytotoxicity assay (intracellular ATP levels), Table 4 Gt1a", "assay_type": "cell-based", "details": "human, Huh7-Lunet cells, HCV 1a (H77) full length", "experimental": "Intracellular ATP levels were measured to determine the cytotoxicity of the compounds in the treated cells. In 96-well plates, 10^4 cells per well were seeded, incubated with serial dilutions of the compounds or DMSO as a control for 72 h at 37 °C (5% CO2) and lysed for ATP measurement. ATP levels were measured using the ViaLight HS BioAssay kit (Lonza, Basel, Switzerland) in a GloMax 20/20 single-tube luminometer (Promega) for 1 s, according to the manufacturer’s protocol. Values were normalized to total protein amounts and used to determine the compound concentration causing 50% cell death (CC50). Nonlinear regression analysis was performed using Prism 5.0 software (GraphPad Software Inc., San Diego, CA, USA)."}, "[3]": {"system": "(+) strand HCV RNA, Con1 (GT 1b) subgenomic replicon", "assay": "RT-qPCR quantification of HCV RNA in Huh5-2 replicon cells", "assay_type": "cell-based, Hepatitis C virus", "details": "normalized to YWHAZ", "experimental": "(§1) The potency of compound 10a measured by the luciferase assay in HCV GT 1b was confirmed at the level of viral RNA and NS5A protein expression. Huh5-2 replicon cells were treated with 10a in serial dilutions, or its solvent DMSO (control), and viral RNA was quantified by reverse transcription-quantitative polymerase chain reaction (RT-qPCR). NS5A protein levels were evaluated by indirect immunofluorescence combined with confocal microscopy analysis. […] Nuclei were stained with propidium iodide (PI) as a cell viability control.\nExtraction of total RNA from Huh5-2 cells was performed using TRIzol reagent (Ambion, Austin, TX, USA), according to the manufacturer’s instructions. Replicon RNA was quantified with reverse transcription (RT) and quantitative real-time polymerase chain reaction (qPCR). RT was performed using a Con1 IRES-specific primer (IRES-R: 5′-[…]-3′) and Moloney Murine Leukemia Virus (MMLV) reverse transcriptase (Promega). […]\nFigure 6 Inhibition of HCV RNA and protein expression levels exerted by compound 10a in HCV Con1 (GT 1b) subgenomic replicon cell line. […] Values are expressed as a percentage of those obtained from cells treated with the solvent (control). […]"}, "[4]": {"system": "NS5A protein expression, HCV Con1 (GT 1b)", "assay": "Indirect immunofluorescence for NS5A in Huh5-2 replicon cells", "assay_type": "cell-based, Hepatitis C virus", "details": "10-fold serial dilutions, confocal microscopy", "experimental": "as §1\nAn indirect immunofluorescence analysis of Con1 NS5A was performed as described previously. Propidium iodide (Sigma-Aldrich, St. Louis, MO, USA) was used to stain the DNA. Images were obtained with a Leica TCS-SP8 Confocal Microscope (Wetzlar, Germany).\nFigure 6 Inhibition of HCV RNA and protein expression levels exerted by compound 10a in HCV Con1 (GT 1b) subgenomic replicon cell line. (A) RT-qPCR analysis of (+) strand HCV RNA levels in Huh5-2 replicon cells treated with 10-fold serial dilutions of compound 10a or the solvent DMSO. Values are expressed as a percentage of those obtained from cells treated with the solvent (control). The housekeeping gene YWHAZ (tyrosine 3-monooxygenase/tryptophan 5-monooxygenase activation protein zeta) was used as a normalization control. […]"}}, "note": "Like-named read-outs stand apart in the source and are kept apart here."}
{"smiles": "COC(=O)N[C@@H](C(=O)N1CCC[C@H]1c1ncc(-c2cccc(C#CC#Cc3cccc(-c4cnc([C@@H]5CCCN5C(=O)[C@H](NC(=O)OC)c5ccccc5)[nH]4)c3)c2)[nH]1)c1ccccc1", "note": "[Compound 10a, Dimethyl ((1R,1′R)-((2S,2′S)-((buta-1,3-diyne-1,4-diylbis(3,1-phenylene))bis(1H-imidazole-5,2-diyl))bis(pyrrolidine-2,1-diyl))bis(2-oxo-1-phenylethane-2,1-diyl))dicarbamate]", "values": [{"measurement": "EC50", "setting": "[1]; Hepatitis C virus, Huh-5-2, 72 h, read-out: HCV Replicon 1b EC50, Huh5-2 cells, Con1 strain, F-Luc, 72 h", "value": 0.1, "unit": "nM"}, {"measurement": "EC50", "setting": "[1]; Huh5-2 cells, Con1 strain, F-Luc, 72 h, read-out: HCV Replicon 1b EC50", "value": 0.1, "unit": "nM"}, {"measurement": "CC50 at 72 h", "setting": "[2]", "value": "> 100000", "unit": "nM"}, {"measurement": "EC50", "setting": "[3]; Hepatitis C virus, GT1B, Huh-5-2, RT-qPCR", "value": 0.255, "unit": "nM"}, {"measurement": "EC50", "setting": "[3]; RT-qPCR", "value": 0.25, "unit": "nM"}, {"measurement": "NS5A protein expression", "setting": "[4]", "value": "reduction of NS5A expression"}, {"measurement": "melting point", "value": "126 to 128", "unit": "°C"}]}
